Source: ChEMBL document CHEMBL1123685, “Synthesis and antiviral activity of various 3'-azido, 3'-amino, 2',3'-unsaturated, and 2',3'-dideoxy analogues of pyrimidine deoxyribonucleosides against retroviruses” (1987)

Test system: Moloney murine leukemia virus
Assay: Compound was tested against Moloney murine leukemia virus (M-MULV) in 3T3 cells, at a concentration of 10 uM
Format: functional
Settings: NIH3T3

Question: For Cc1cn([C@H]2CC[C@@H](CO)O2)c(=O)[nH]c1=O, which inhibition at 10 µM is on record?
Answer: 50%

Test system: Moloney murine leukemia virus
Assay: In vitro inhibitory activity against Moloney murine leukemia virus (M-MULV) replication, a mammalian T-lymphotropic retrovirus
Format: functional
Settings: read-out: ED50 (the source's name)

Question: How did the EC50 turn out when Cc1cn([C@H]2C[C@H](O)[C@@H](CN=[N+]=[N-])O2)c(=O)[nH]c1=O was run?
Answer: > 100 µM

Question: With O=c1ccn([C@H]2CC[C@@H](CO)O2)c(=O)[nH]1 as the molecule, how does the EC50 read?
Answer: > 100 µM

Question: For [N-]=[N+]=N[C@H]1C[C@H](n2cc(C(F)(F)F)c(=O)[nH]c2=O)O[C@@H]1CO, which EC50 is on record?
Answer: > 100 µM

Question: How did the EC50 turn out when [N-]=[N+]=N[C@H]1C[C@H](n2cc(Br)c(=O)[nH]c2=O)O[C@@H]1CO was run?
Answer: 1.5 µM

Question: Which EC50 does the source give for N[C@H]1C[C@H](n2cc(C(F)(F)F)c(=O)[nH]c2=O)O[C@@H]1CO here?
Answer: > 100 µM

Question: Cc1cn([C@H]2C[C@H](N=[N+]=[N-])[C@@H](CN=[N+]=[N-])O2)c(=O)[nH]c1=O was tested. Which EC50 did it give?
Answer: 17 µM

Question: Which EC50 does the source give for Cc1cn([C@H]2C[C@H](N=[N+]=[N-])[C@@H](CO)O2)c(=O)nc1N here?
Answer: > 100 µM

Question: With [N-]=[N+]=N[C@H]1C[C@H](n2cc(F)c(N)nc2=O)O[C@@H]1CO as the molecule, how does the EC50 read?
Answer: > 100 µM

Question: [N-]=[N+]=N[C@H]1C[C@H](n2ccc(N)nc2=O)O[C@@H]1CO was tested. Which EC50 did it give?
Answer: 58 µM

Question: [N-]=[N+]=N[C@H]1C[C@H](n2cc(I)c(=O)[nH]c2=O)O[C@@H]1CO was tested. Which EC50 did it give?
Answer: 3 µM

Question: Which EC50 does the source give for Cc1cn([C@H]2C[C@H](N)[C@@H](CN)O2)c(=O)[nH]c1=O here?
Answer: > 100 µM

Question: How did the EC50 turn out when [N-]=[N+]=N[C@H]1C[C@H](n2cc(F)c(=O)[nH]c2=O)O[C@@H]1CO was run?
Answer: > 100 µM

Question: O=c1[nH]c(=O)n([C@H]2CC[C@@H](CO)O2)cc1/C=C/Br was tested. Which EC50 did it give?
Answer: > 100 µM

Question: For O=c1[nH]c(=O)n([C@H]2CC[C@@H](CO)O2)cc1I, which EC50 is on record?
Answer: > 100 µM

Question: For Nc1ccn([C@H]2C=C[C@@H](CO)O2)c(=O)n1, which EC50 is on record?
Answer: 3.7 µM

Question: For O=c1[nH]c(=O)n([C@H]2CC[C@@H](CO)O2)cc1Br, which EC50 is on record?
Answer: > 100 µM

Question: Which EC50 does the source give for Cc1cn([C@H]2C[C@H](O)[C@@H](CN)O2)c(=O)[nH]c1=O here?
Answer: > 100 µM

Question: Which EC50 does the source give for Cc1cn([C@H]2CC[C@@H](CO)O2)c(=O)[nH]c1=O here?
Answer: > 100 µM

Question: With O=c1ccn([C@H]2C=C[C@@H](CO)O2)c(=O)[nH]1 as the molecule, how does the EC50 read?
Answer: > 100 µM

Question: Cc1cn([C@H]2C[C@H](N)[C@@H](CO)O2)c(=O)[nH]c1=O [3-AMINO- 3-DEOXYTHYMIDINE] was tested. Which EC50 did it give?
Answer: 42 µM

Question: With [N-]=[N+]=N[C@H]1C[C@H](n2ccc(=O)[nH]c2=O)O[C@@H]1CO [NAVURIDINE] as the molecule, how does the EC50 read?
Answer: 52 µM

Question: Cc1cn([C@H]2C=C[C@@H](CO)O2)c(=O)[nH]c1=O [STAVUDINE] was tested. Which EC50 did it give?
Answer: 2.5 µM

Question: Which EC50 does the source give for Nc1ccn([C@H]2CC[C@@H](CO)O2)c(=O)n1 [ZALCITABINE] here?
Answer: 4 µM

Question: For Cc1cn([C@H]2C[C@H](N=[N+]=[N-])[C@@H](CO)O2)c(=O)[nH]c1=O [ZIDOVUDINE], which EC50 is on record?
Answer: 0.02 µM

Test system: Human immunodeficiency virus 1
Assay: Activity against HTLV-III/LAV[…], was determined in vitro.
Format: functional
Settings: read-out: ED50 (the source's name)

Question: How did the EC50 turn out when [N-]=[N+]=N[C@H]1C[C@H](n2cc(Br)c(=O)[nH]c2=O)O[C@@H]1CO was run?
Answer: 2.3 µM

Question: Cc1cn([C@H]2C[C@H](N=[N+]=[N-])[C@@H](CO)O2)c(=O)[nH]c1=O [ZIDOVUDINE] was tested. Which EC50 did it give?
Answer: 0.23 µM
